Consider three compounds from paper PMC2408655 (Journal of Neurochemistry, 2008).

Read-outs that look alike come from different tables or passages of the source.

The target of assay [1] is T1, α-synuclein (AS) filaments (Homo sapiens, UniProt P37840). Nature of the assay: Radioligand competition assay of α-synuclein. Particulars: for displacement of the radioligand from the AS filaments: [3H]-Me-BTA1 radioligand, Fig. 3b. The class given is binding. A general note: Loss of bound radioactivity is the signal in a displacement assay; it reports binding, not function.

In assay [2] the target is Aβ fibrils. Particulars: read-out: Kd and Ki values, Aβ, in vitro generated Aβ fibrils, cited from earlier work.
The target of assay [3] is T1, α-synuclein (AS) filaments. Briefly: Radioligand binding assay of α-synuclein.

As a reminder, the Ki is the dissociation constant of the complex between target and ligand, obtained from inhibition or displacement. Usually Kd stands for the free concentration of one partner at which half of the binding sites on the other are occupied at equilibrium, for simple one-to-one binding. Turning to `CNc1ccc(-c2nc3ccc(O)cc3s2)cc1` [PIB, 2-[4′-(methylamino)phenyl]-6-hydroxybenzothiazole], the “fold weaker binding than BF1” value in assay [1] (Ki relative to BF1) was “around fourfold weaker”. In addition, the “displacement of the radioligand from the AS filaments” value in assay [1] is “dose-dependent displacement”. The Ki in assay [2] (ref Ye et al. 2005) is 25 nM. Besides, the dissociation constant (Kd) in assay [3] is 4.16 nM.
As for `CN(C)c1ccc(-c2cc3cc(Br)ccc3o2)cc1` [BF1, 5-bromo-2-(4-dimethylaminophenyl)benzofuran], in assay [1], the “displacement of the radioligand from the AS filaments” value is “dose-dependent displacement”. The Ki in assay [2] (ref Lockhart et al. 2005) was 3 nM.
Turning to `CNc1ccc(-c2nc3ccc(C)cc3s2)cc1` [Me-BTA1, 2-[4′-(methylamino)phenyl]-6-methylbenzothiazole], the Kd in assay [2] (ref Lockhart et al. 2005) is 4.2 nM.
